Values of other authors as cited in patent US20250041461A1, “[177LU] LUTETIUM-PSMA I&T COMPOSITION AND DOSIMETRY, KIT, METHOD OF MAKING, AND METHOD OF USING THEREOF” (Curium US LLC, priority 2023, published 2025).
Where two headings read alike, the source gives them in different places.

Experiments:
[1] = cited from earlier work; for Absorbed Dose, Mean: Pluvicto; for dose estimate, Mean: Pluvicto Spc
[2] = cited from earlier work
prostate cancer = settings: in vivo; cited from earlier work

O=C([O-])CN1CCN(CC(=O)[O-])CCN(CC(=O)NCC2CCC(C(=O)N[C@@H](Cc3ccc4ccccc4c3)C(=O)NCCCC[C@H](NC(=O)N[C@@H](CCC(=O)O)C(=O)O)C(=O)O)CC2)CCN(CC(=O)[O-])CC1.[177Lu+3] (some centres unmarked) [^177Lu-PSMA-617]
Absorbed Dose, Mean ([1]; Bladder): 0.32 Gy/GBq
dose estimate, Mean ([1]; Heart Wall): 0.17 Gy/GBq
Absorbed Dose, Mean ([1]; Heart): 0.17 Gy/GBq
dose estimate, Mean ([1]; Kidneys): 0.43 Gy/GBq
Absorbed Dose, Mean ([1]; Kidneys): 0.43 Gy/GBq
Absorbed Dose, Mean ([1]; Lacrimal Glands): 2.1 Gy/GBq
dose estimate, Mean ([1]; Lacrimal gland): 2.1 Gy/GBq
Absorbed Dose, Mean ([1]; Left Colon): 0.58 Gy/GBq
dose estimate, Mean ([1]; Left colon): 0.58 Gy/GBq
dose estimate, Mean ([1]; Liver): 0.09 Gy/GBq
Absorbed Dose, Mean ([1]; Liver): 0.090 Gy/GBq
dose estimate, Mean ([1]; Rectum): 0.56 Gy/GBq
Absorbed Dose, Mean ([1]; Right Colon): 0.32 Gy/GBq
dose estimate, Mean ([1]; Right colon): 0.32 Gy/GBq
Absorbed Dose, Mean ([1]; Salivary Glands): 0.63 Gy/GBq
dose estimate, Mean ([1]; Salivary glands): 0.63 Gy/GBq
dose estimate, Mean ([1]; Spleen): 0.07 Gy/GBq
Absorbed Dose, Mean ([1]; Spleen): 0.067 Gy/GBq
dose estimate, Mean ([1]; Thyroid): 0.26 Gy/GBq
Absorbed Dose, Mean ([1]; Thyroid): 0.26 Gy/GBq
dose estimate, Mean ([1]; Urinary bladder wall): 0.32 Gy/GBq
mean renal absorbed dose ([2]; VISION trial, 29 patients): 0.43±0.16 Gy/GBq
mean renal absorbed dose ([2]; Violet et al.): 0.39±0.16 Gy/GBq
projected cumulative absorbed dose to the kidneys at 6 cycles ([2]; Vision trial): 19±7.3 Gy
renal toxicities ([2]; Vision trial): no renal toxicities were observed
adverse effects (prostate cancer): mainly transient adverse effects
